Experimental data reported in patent publication US11628198B2, “Methods for prevention and treatment of acute renal injury” (Cornell University, priority 2008, dated 2023).

What was measured:
Format in all cases: in vivo, rat
[1] = test system: heme oxygenase-1 (HO-1) expression; assay: 14-day UUO model: RT-PCR for HO-1
Procedure: Sprague-Dawley rats underwent unilateral ureteral ligation (UUO) with 4-0 silk suture through a midline abdominal incision under sterile conditions. Ureteral obstruction was carried out by ligating the left ureter at the end of lower ureter, just above the ureterovesical junction.
SS-31 (1 mg/kg or 3 mg/kg; n=8) was administered intraperitoneally, one day prior to UUO and continuing for 14 days. A separate group of animals was given saline, as a vehicle control (n=16).
Polymerase Chain Reaction Analysis: PCR for heme oxygenase-1 (HO-1) isolated from kidneys was performed as follows. Rat kidneys were harvested and were kept at −80° C. until use. Total RNA was extracted using the Trizol®-Chloroform extraction procedure. mRNA was purified using the Oligotex mRNA extraction kit (Qiagen, Valencia, Calif.) according to manufacturer's instructions. mRNA concentration and purity were determined by measuring absorbance at 260 nm. RT-PCR was preformed using Qiagen One-step PCR kit (Qiagen, Valencia, Calif.). PCR was performed in an automated thermal cycler ThermoHybrid, PX2 with an initial activation step for 15 min at 95° C. followed by 35 cycles of denaturation for 45 s at 94° C., annealing for 30 s at 60° C., extension for 60 s at 72° C. […] Bands on gels were visualized by ethidium bromide staining and analyzed using Image J densitometric analysis software. […]

[2] = test system: radiocontrast dye-induced renal failure; assay: CIN, indomethacin/L-NAME model, Experiment 2
Procedure: Animal model: The same indomethacin and L-NAME model described above was used in this experiment. In this model, impaired renal function was induced by the administration of indomethacin (8 mg/kg) and L-NAME (10 mg/kg).
Renal function: Renal function was assessed by determining serum and urinary creatinine using DICT-kit from Bioassays Systems (Hayward, Calif.) at baseline and 26 h following dye administration. Urinary protein concentration was also determined at baseline and 26 h following dye administration by BCA Protein Assay kit (Thermo Scientific, Rockford, Ill.). Samples were analyzed by students t-test and differences were considered significant at p<0.05.
(§1) Renal Histology: Kidneys were fixed in 10% neutral-buffered formalin and embedded in paraffin wax. Three micron sections were stained with hematoxylin-eosin (H&E) and periodic acid-Schiff (PAS) and analyzed by light microscopy by a board certified pathologist.

[3] = test system: radiocontrast dye-induced renal failure; assay: CIN, indomethacin/L-NAME/iothalamate model, Experiment 1
Procedure: Animal Model: A model of radiocontrast dye-induced renal failure as described by Agmon et al. J Clin Invest 94:1069-1075 (1994) in this Example. As in humans, radiocontrast dye is generally non-toxic when administered to animals with normal renal function. However, radiocontrast dye can induce ARI in animals with impaired renal function. In this model, impaired renal function was induced by the administration of indomethacin (10 mg/kg) and L-NAME (10 mg/kg). The animals were divided into 3 groups: • 1. Group (1) control (n=8) • 2. Group (2) Indomethcin/L-NAME (given 15 min apart) followed by iothalamate (AngioConray 6 ml/kg) (n=7) • 3. Group (3) SS-31 (3 mg/kg, ip) was given 15 min prior to administration of indomethacin/L-NAME/iothalamate, and a second dose of SS-31 (3 mg/kg) was repeated immediately after drug exposure (n=9)
Experimental Protocol: Rats were kept in metabolic cages (Nalge Co., Rochester, N.Y.) with free access to tap water and standard rat chow. After a baseline 24-h urinary collection, the rats were anesthetized with a mixture of ketamine (90 mg/kg, i.p.) and xylazine (4 mg/kg, i.p.). The left femoral vein and artery were cannulated and a baseline blood sample drawn (1 ml) for measurement of creatinine level. The animals then received the various drug treatments as indicated above. Iothalamate Meglumine 60% (contrast dye; AngioConray 6 ml/kg) was then injected through the arterial cannula. The left femoral artery was then ligated and the cannula removed. Rats were then returned to the metabolic cages for another 24-h urine collection. […]
Renal Function: Renal function was assessed by determining GFR at baseline and 24 h following dye administration. […] Creatinine clearance was analyzed by measuring plasma (Pcr), urinary creatinine (Ucr) levels (Bioassay Systems; DICT-500) and urine volume.
as §1

[4] = test system: CIN in glycerol-induced rhabdomyolysis animal model; assay: CIN in glycerol-induced rhabdomyolysis model, Experiment 1
Procedure: In this model, SD rats with body weight of 300-400 g were dehydrated for 24 h followed by i.m. injection of 25% glycerol solution (v/v) at the dose of 10 ml/kg. Twenty-four hours (24 h) later, the rats were grouped and subjected to a contrast induced nephropathy study protocol as detailed in FIG. 20. The effects of SS-31 on ARI can be examined by comparing the renal functions in animals from group C with those from group B. Samples were analyzed by students t-test and differences were considered significant at p<0.05.
Renal function: Renal function was assessed by determining serum and urinary creatinine using Jiancheng Cr kit (Nanjing, P.R.C) at baseline, 24 h after dehydration and 48 h post the contrast dye administration. The creatinine clearance was calculated based on the Scr, Ucr and urinary volume. Urinary microalbumin concentration was determined by a competition ELISA assay.

[5] = 26 h post contrast dye vs baseline

With D-Arg-2′6′Dmt-Lys-Phe-NH2 [SS-31] the “HO-1 expression in the obstructed kidney” value [1] was “decreased HO-1 expression”, the SCr ([2]; 1 day (26 h post dye)) was 0.73 ± 0.04 mg/dL and the “U protein BCA” value ([2]; 1 day (26 h post dye)) was 11.76 ± 2.71 mg/mL. For the same substance, the Ucr ([2]; 1 day (26 h post dye)) was 38.12 ± 8.19 mg/dL, the Scr increase [2, 5] was 9% and the “urinary protein concentration increase” value [2, 5] was 1.7 fold. For the same substance, the “rats protected from contrast dye induced nephropathy (Scr increase less than 25% at 26 h post dye)” value ([2]; 26 h post dye) was “Five out of seven”, the SCr ([2]; Baseline) was 0.67 ± 0.09 mg/dL and the “U protein BCA” value ([2]; Baseline) was 4.28 ± 1.15 mg/mL. For the same substance, the Ucr ([2]; Baseline) was 15.54 ± 3.87 mg/dL, the “PAS staining of kidney” value ([2]; dye-injected) was “intact brush borders and normal glomeruli” and the “rats almost completely protected from the effects of the dye” value ([3]; 3 mg/kg ip before and after drug exposure) was “Six of nine”. The “PAS staining of kidney” value ([3]; dye-injected) was “intact brush borders and normal glomeruli”, the “apoptotic cells/hpf (TUNEL)” value ([3]; dye-injected) was “greatly attenuated” and the urinary microalbumin level ([4]; T0, after 24 h dehydration, no peptide treatment at this time point) was 757.7±462.9 μg/24 h. The total albuminuria ([4]; T2, compared to the vehicle treated group) was “decreased significantly” and the “PAS staining of kidney” value ([4]; glycerin, dye) was “intact brush borders, normal glomeruli and minimum protein cast in the tubular cells”.
